This note sets out measurements from patent US8765779B2, “Tricyclic derivatives and their pharmaceutical use and compositions” (Cephalon, Inc., priority 2009, dated 2014).

Structures can show the parent of a compound that is named as a salt.

What is called Ki is a measure of affinity in units of concentration, obtained from inhibition or displacement.

The test has as its target T1, human 5-HT6 receptor (Homo sapiens, UniProt P50406).
T1 construct: host or cells: CHO-K1 cells, stably transfected; membranes prepared in house
The test is described as follows: Human 5-HT6 Receptor Binding Assay ([3H]LSD displacement, scintillation beads). Conditions: membranes of CHO-K1 cells with recombinant human 5-HT6, 4 nM [3H]LSD; Table 1, class symbols; read-out: h5-HT6 (Ki).

T1 sequence (P50406 whole entry): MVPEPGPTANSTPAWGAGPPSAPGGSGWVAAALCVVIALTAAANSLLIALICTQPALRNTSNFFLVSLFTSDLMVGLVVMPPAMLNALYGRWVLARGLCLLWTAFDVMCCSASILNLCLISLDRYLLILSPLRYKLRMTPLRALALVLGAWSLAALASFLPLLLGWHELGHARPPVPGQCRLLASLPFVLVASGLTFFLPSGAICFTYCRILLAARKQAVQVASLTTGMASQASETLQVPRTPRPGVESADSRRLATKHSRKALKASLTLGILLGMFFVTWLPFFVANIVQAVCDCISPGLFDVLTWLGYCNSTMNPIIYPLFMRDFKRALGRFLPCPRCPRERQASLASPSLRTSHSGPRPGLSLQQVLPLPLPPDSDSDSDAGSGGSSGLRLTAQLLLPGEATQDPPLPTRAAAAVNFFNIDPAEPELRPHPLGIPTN

Turning to `O=S(=O)(c1ccc2c(c1)OC1CNCCC21)c1cccc2ccccc12` (centres unmarked) [Example 114], the inhibition constant Ki was below 0.5 µM. As to `O=S(=O)(c1ccccc1)c1ccc2c(c1)OC1CNCCC21` (centres unmarked) [Example 321, 7-(phenylsulfonyl)-1,2,3,4,4a,9a-hexahydro[1]benzofuro[2,3-c]pyridine], the inhibition constant (Ki) was below 0.5 µM. Then `CC12CCNCC1Oc1ccc(OS(=O)(=O)c3cccc4ccccc34)cc12` (centres unmarked) [Example 768], with 0.5 to 1 µM; and `O=S(=O)(Oc1ccc2c(c1)OC1CNCCC21)c1ccc(Cl)c(Cl)c1` (centres unmarked) [Example 676], with below 0.5 µM; and `COc1cncc(S(=O)(=O)c2ccc3c4c(oc3c2)C(C)(C)NCC4)c1` [Example 370], with below 0.5 µM. The figure for `Nc1cccc(S(=O)(=O)c2ccc3c4c(oc3c2)CNCC4)c1` [Example 342] is below 0.5 µM; for `O=S(=O)(c1ccc(F)c(Cl)c1)c1ccc2c3c(oc2c1)CNCC3` [Example 193] it is below 0.5 µM; for `O=S(=O)(c1ccc(Cl)cc1)c1cccc2c1OC1CNCCC21` (centres unmarked) [Example 188] it is below 0.5 µM. As to `CC(C)N1CCC2c3ccc(OS(=O)(=O)c4ccc(Cl)cc4)cc3OC2C1` (centres unmarked) [Example 798, 2-(Propan-2-yl)-1,2,3,4,4a,9a-hexahydro[1]benzofuro[2,3-c]pyridin-7-yl-4-chlorobenzenesulfonate], the inhibition constant Ki was above 1 µM. In the case of `COc1cccc(S(=O)(=O)c2cccc3c2OC2CNCCC32)c1` (centres unmarked) [Example 182], the Ki was below 0.5 µM.

As to `COc1c(F)cc(F)cc1S(=O)(=O)c1ccc2c(c1)OC1CNCCC21` (centres unmarked) [Example 463], the inhibition constant (Ki) was below 0.5 µM. As for `[O-][S+](c1ccc2c3c(oc2c1)CNCC3)c1ccccc1Cl` (centres unmarked) [Example 229], the inhibitory constant (Ki) is below 0.5 µM. As to `O=S(=O)(c1cccc(C(F)(F)F)c1)c1ccc2c(c1)OC1CNCCC21` (centres unmarked) [Example 126], the Ki is below 0.5 µM. Regarding `COc1cccc(S(=O)(=O)c2ccc3c4c(oc3c2)CNCC4)c1` [Example 199], the inhibition constant (Ki) was below 0.5 µM. With `O=S(=O)(c1cccc(C(F)(F)F)c1)c1ccc2oc3c(c2c1)CCNC3` [Example 239], the Ki was below 0.5 µM. Take `O=[N+]([O-])c1ccc(S(=O)(=O)c2cccc3c2OC2CNCCC32)cc1` (centres unmarked) [Example 190]: the Ki is above 1 µM. The figure for `O=S(=O)(c1cccc(OCc2ccccn2)c1)c1ccc2c(c1)OC1CNCCC21` (centres unmarked) [Example 562] is below 0.5 µM; for `CC1(C)NCCc2c1oc1cc(S(=O)(=O)c3cccc(OC(F)(F)F)c3)ccc21` [Example 291, 1,1-dimethyl-7-{[3-(trifluoromethoxy)phenyl]sulfo-nyl}-1,2,3,4-tetrahydro[1]benzofuro[2,3-c]pyridine] it is below 0.5 µM; for `COc1cccc(S(=O)(=O)c2ccc3c(c2)OC2CNCCC32)c1F` (centres unmarked) [Example 416] it is below 0.5 µM. On to `O=S(=O)(c1cccc(F)c1)c1ccc2c3c([nH]c2c1)C1(CCCOC1)NCC3` (centres unmarked) [Example 317], for which the Ki is below 0.5 µM.

As to `O=S(=O)(c1ccc(F)cc1)c1ccc2oc3c(c2c1)CCNC3` [Example 264], the Ki is below 0.5 µM. Regarding `CC1(C)NCCc2c1oc1cc(S(=O)(=O)c3ccc(N4CCCC4)nc3)ccc21` [Example 380], the inhibition constant (Ki) is above 1 µM. The figure for `CCCCOc1cccc(S(=O)(=O)c2ccc3c(c2)OC2CNCCC32)c1` (centres unmarked) [Example 554] is below 0.5 µM; for `O=S(=O)(c1cccc(F)c1)c1ccc2oc3c(c2c1)CCN1CCCCC31` (centres unmarked) [Example 618] it is above 1 µM; for `COc1cc(OC(C)C)cc(S(=O)(=O)c2ccc3c(c2)OC2CNCCC32)c1` (centres unmarked) [Example 78] it is below 0.5 µM. Turning to `O=S(=O)(c1ccc(OC(F)(F)F)cc1)c1ccc2oc3c(c2c1)CCNC3` [Example 275, 6-{[4-(trifluoromethoxy)phenyl]sulfo-nyl}-1,2,3,4-tetrahydro[1]benzofuro[2,3-c]pyridine], the Ki lay in the range of 0.5 to 1 µM.

`Cc1ccc(S(=O)(=O)Oc2ccc3c(c2)OC2CNCCC32)cc1C` (centres unmarked) [Example 649]: the Ki is below 0.5 µM. Then `O=S(=O)(Oc1ccc2c(c1)OC1CNCCC21)c1ccccc1C(F)(F)F` (centres unmarked) [Example 674], with below 0.5 µM. Consider `CC(=O)Nc1ccc(S(=O)(=O)Oc2ccc3c(c2)C2CCNCC2O3)cc1` (centres unmarked) [Example 728], for which the inhibition constant (Ki) is above 1 µM. Then `CC12CCNCC1Oc1ccc(OS(=O)(=O)c3ccc(Cl)cc3)cc12` (centres unmarked) [Example 757], with above 1 µM; and `O=S(=O)(c1ccc2oc3c(c2c1)CCNC3)c1cc(F)ccc1F` [Example 273], with below 0.5 µM.

`O=S(=O)(Nc1ccc(Cl)c(Cl)c1)c1ccc2c(c1)C1CCNCC1O2` (centres unmarked) [Example 852]: the inhibition constant Ki was above 1 µM. Then `O=S(=O)(Nc1cccc(F)c1)c1ccc2c(c1)C1CCNCC1O2` (centres unmarked) [Example 846], with above 1 µM; and `CC1(C(F)F)NCCc2c1oc1cc(S(=O)(=O)c3ccccc3)ccc21` (centres unmarked) [Example 524], with below 0.5 µM. The figure for `O=S(=O)(c1cccc(OCCn2cccc2)c1)c1ccc2c(c1)OC1CNCCC21` (centres unmarked) [Example 573] is below 0.5 µM. Regarding `O=S(=O)(c1ccccc1)c1ccc2c3c([nH]c2c1)C1(CCOCC1)NCC3` [Example 545, 7-(Phenylsulfonyl)-2,2′,3,3′,4,5′,6′,9-octahydrospiro[beta-carboline-1,4′-pyran]trifluoroacetate], the Ki is below 0.5 µM. Then `CC12CCNCC1Oc1ccc(OS(=O)(=O)c3ccc(-c4cnco4)cc3)cc12` (centres unmarked) [Example 777], with above 1 µM; and `COc1ccccc1NS(=O)(=O)c1ccc2c(c1)C1CCNCC1O2` (centres unmarked) [Example 841], with above 1 µM; and `O=S(=O)(c1cc(F)cc(F)c1)c1ccc2c3c(oc2c1)C1(CCOC1)NCC3` (centres unmarked) [Example 305], with below 0.5 µM. Take `CC1(C)NCCc2c1oc1cc(S(=O)(=O)c3cccc(Cl)c3)ccc21` [Example 17, 7-[(3-chlorophenyl)sulfonyl]-1,1-dimethyl-1,2,3,4-tetrahydro[1]benzofuro[2,3-c]pyridine]: the inhibitory constant (Ki) is below 0.5 µM. The figure for `CC12CCNCC1Oc1cc(S(=O)(=O)c3cc(F)cc(F)c3)ccc12` (centres unmarked) [Example 359] is below 0.5 µM. The figure for `O=S(=O)(Oc1ccc2c(c1)OC1CNCCC21)c1ccc(N2CCOCC2)nc1` (centres unmarked) [Example 683] is 0.5 to 1 µM. Then `O=S(=O)(Oc1ccc2c(c1)C1CCNCC1O2)c1c(Cl)cccc1Cl` (centres unmarked) [Example 741], with below 0.5 µM.

Take `CC(=O)N(C)CCC1NCCc2c1oc1cc(S(=O)(=O)c3cccc(Cl)c3)ccc21` (racemic) [Example 542, N-(2-{7-[(3-chlorophenyl)sulfonyl]-1,2,3,4-tetrahydro[1]benzofuro[2,3-c]pyridin-1-yl}ethyl)-N-methylacetamide]: the inhibitory constant (Ki) is below 0.5 µM.

As for `CCN1CCC2c3ccc(S(=O)(=O)c4ccccc4)cc3OC2C1` (centres unmarked) [Example 605], the inhibitory constant (Ki) lay within 0.5 to 1 µM. For `CC12CCNCC1Oc1ccc(OS(=O)(=O)c3ccc(C(F)(F)F)cc3)cc12` (centres unmarked) [Example 778], the inhibitory constant (Ki) is above 1 µM. The figure for `O=S(=O)(Oc1ccc2c(c1)C1CCNCC1O2)c1ccccn1` (centres unmarked) [Example 753] is above 1 µM; for `COc1cc(OC)cc(S(=O)(=O)c2ccc3c(c2)OC2CNCCC32C)c1` (centres unmarked) [Example 489] it is below 0.5 µM; for `CC(C)c1ccc(S(=O)(=O)Nc2ccc3c(c2)C2CCNCC2O3)cc1` (centres unmarked) [Example 824] it is above 1 µM.

On to `O=S(=O)(c1cc(F)cc(F)c1)c1ccc2c(c1)OC1CNCCC21` (centres unmarked) [Example 158], for which the inhibition constant (Ki) was below 0.5 µM. The figure for `O=S(=O)(c1ccc2c(c1)OC1CNCCC21)c1cccc2cccnc12` (centres unmarked) [Example 332] is below 0.5 µM; for `CN(C)C(=O)CC1(C)NCCc2c1oc1cc(S(=O)(=O)c3cccc(F)c3)ccc21` (racemic) [Example 40, 2-{7-[(3-fluorophenyl)sulfonyl]-1-methyl-1,2,3,4-tetrahydro[1]benzofuro[2,3-c]pyridin-1-yl}-N,N-dimethylacetamide] it is below 0.5 µM; for `[O-][S+](c1ccc2c(c1)OC1CNCCC21)c1cc(F)ccc1F` (centres unmarked) [Example 142] it is above 1 µM. Then `O=S(=O)(c1ccccc1)c1ccc2c(c1)OC1CNCCC21` (centres unmarked) [Example 326, 7-(phenylsulfonyl)-1,2,3,4,4a,9a-hexahydro[1]benzofuro[2,3-c]pyridine], with below 0.5 µM; and `[O-][S+](c1cccc(F)c1)c1ccc2c(c1)OC1CNCCC21` (centres unmarked) [Example 625, 7-[(3-Fluorophenyl)sulfinyl]-1,2,3,4,4a,9a-hexahydro[1]benzofuro[2,3-c]pyridine trifluoroacetic acid salt], with below 0.5 µM; and `Cc1ccc(S(=O)(=O)Oc2ccc3c(c2)C2CCNCC2O3)cc1` (centres unmarked) [Example 700], with below 0.5 µM. For `CC1(C)CNC2(CCOC2)c2oc3cc(S(=O)(=O)c4cccc(F)c4)ccc3c21` (racemic) [Example 46, 7-[(3-fluorophenyl)sulfonyl]-4,4-dimethyl-3,4,4′,5′-tetrahydro-2H-spiro[1-benzofuro[2,3-c]pyridine-1,3′-furan]], the Ki was below 0.5 µM.

Take `O=S(=O)(Oc1ccc2c(c1)C1CCNCC1O2)c1cccc2ccccc12` (centres unmarked) [Example 720]: the Ki was below 0.5 µM. With `COc1cncc(S(=O)(=O)c2ccc3c4c(oc3c2)CNCC4(C)C)c1` [Example 451], the inhibition constant (Ki) is below 0.5 µM. Consider `O=S(=O)(c1cncc(C(F)(F)F)c1)c1ccc2c(c1)OC1CNCCC21` (centres unmarked) [Example 459], for which the Ki is above 1 µM. As to `C#CCOc1cccc(S(=O)(=O)c2ccc3c(c2)OC2CNCCC32)c1` (centres unmarked) [Example 549], the inhibition constant Ki is below 0.5 µM. For `O=S(=O)(c1ccccc1)c1ccc2c(c1)OC1CNCCC21` (centres unmarked) [Example 324, 7-(phenylsulfonyl)-1,2,3,4,4a,9a-hexahydro[1]benzofuro[2,3-c]pyridine], the Ki is below 0.5 µM. On to `O=S(=O)(c1ccccc1)c1ccc2c(c1)C1CCNCC1O2` (centres unmarked) [Example 181, 6-(phenylsulfonyl)-1,2,3,4,4a,9a-hexahydro[1]benzofuro[2,3-c]pyridine], for which the Ki is above 1 µM.

For `N#Cc1ccc(COc2cccc(S(=O)(=O)c3ccc4c(c3)OC3CNCCC43)c2)cc1` (centres unmarked) [Example 551], the Ki was below 0.5 µM. On to `CCOc1cc(F)cc(S(=O)(=O)c2ccc3c(c2)OC2CNCCC32)c1` (centres unmarked) [Example 413], for which the inhibitory constant (Ki) was below 0.5 µM.
